Experimental data as given in patent publication US6143719A, “Bradykinin analogs as selective thrombin inhibitors” (The Regents of the University of Michigan, priority 1996, dated 2000).
Ends that are not written are not given here.

Target: T1, thrombin receptor (Homo sapiens, UniProt P25116)
T1 construct: endogenous in cells; host or cells: washed platelets from fresh blood
T1 sequence (P25116 22-425): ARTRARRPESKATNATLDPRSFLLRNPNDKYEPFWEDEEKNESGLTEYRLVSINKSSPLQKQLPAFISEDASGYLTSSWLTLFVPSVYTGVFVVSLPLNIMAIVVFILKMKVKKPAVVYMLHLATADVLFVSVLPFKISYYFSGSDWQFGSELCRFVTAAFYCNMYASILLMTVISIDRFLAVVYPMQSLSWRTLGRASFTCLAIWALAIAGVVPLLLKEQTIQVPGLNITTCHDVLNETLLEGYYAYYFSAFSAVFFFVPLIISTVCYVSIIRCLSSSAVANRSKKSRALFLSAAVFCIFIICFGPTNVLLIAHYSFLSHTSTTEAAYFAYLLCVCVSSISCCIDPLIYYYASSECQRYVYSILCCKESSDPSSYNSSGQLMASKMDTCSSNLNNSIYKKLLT
Test: flow cytometry of thrombin receptor epitopes (SPAN12, ATAP138) on α-thrombin activated platelets
Assay type: cell-based
Details: peptide 1 mM, α-thrombin 1 nM
Description: Flow cytometry studies were performed to determine whether BK analogs prevent α-thrombin from eliminating an epitope on the thrombin receptor which is lost following α-thrombin cleavage- of the receptor. SPAN12 is an antibody to the thrombin receptor on platelets, which is specific for such an epitope. Studies were also performed to determine the effect of BK analogs on an epitope recognized by monoclonal antibody ATAP 138. The antibody is directed to an epitope on the thrombin receptor which is preserved after α-thrombin cleaves the receptor (FIGS. 7A-7D).
Monoclonal antibody SPAN12 was reared to the 12 amino acids, Asn-Ala-Thr-Leu-Asp-Pro-Arg-Ser-Phe-Leu-Leu-Arg (SEQ ID NO:2), that bridge the α-thrombin cleavage site on the thrombin receptor by the methods of Molinot et al., J. Biol. Chem. 270:ln Press, 1995. […]
Mouse IgG and an antibody to the epitope CD62 were used as controls. […] The fluorescence of bound FITC-anti-IgG to platelets was monitored on an Epics-C flow cytometer (Coulter Electronics, Hialeah, Fla.). Light scatter and fluorescence channels were set at logarithmic gain. […] Green fluorescence was observed through a 525 nm band pass filter. The relative fluorescence intensity of at least 15,000 platelets was analyzed in each sample. […]

Sequence: RPPGFSPFR [BK, bradykinin]
- loss of SPAN12 epitope of thrombin receptor on α-thrombin activated platelets: prevents the loss of the epitope
